Legend:
normal mice [1] = conditions: subcutaneous injection 10 mg kg^−1; 5-30 min; FIG. 10B
normal mice [2] = conditions: subcutaneous injection 10 mg kg^−1; 1 hour after injection; FIG. 10G

CN1CC[C@]23c4c5ccc(O)c4O[C@H]2[C@@H](O)C=C[C@H]3[C@H]1C5 [morphine single drug, morphine]
heart rate compared with conditions before administration (normal mice [1]): remarkably reduced
number of fecal particles compared with the solvent group (normal mice [2]): remarkably reduced

Source: patent publication US20260240772A1 (priority 2022, published 2026)
